Patent publication US8022043B2, “Ceramide derivatives as modulators of immunity and autoimmunity” (Albert Einstein College of Medicine of Yeshiva University, priority 2004, dated 2011)

Tested on: C57BL/6 mice
Experiment: Serum IL-4 and IFNγ after a single i.p. injection
Type: in vivo
Description: Serum levels of L-4 and IFNγ after a single injection of DB01-1, DB03-4, or DB03-5 are shown. C57BL/6 mice (11-13 weeks old) were given a single i.p. injection of 4.8 nanomoles of the compounds or phosphate buffered saline (PBS)/vehicle control. Serum cytokine levels were measured 2 and 20 hours later by capture ELISA. Bars show means of three mice, with standard deviation. Note that DB01-1 has nearly identical structure to KRN7000 (C24 fatty acid as compared to C26) and has activity that is indistinguishable from KRN7000 in multiple bioassays. We use DB01-1 as a “KRN7000 mimic” because it has been synthesized by our group and is readily available for our studies, and KRN7000 was unavailable due to license restrictions.
A most intriguing property of KRN7000 analogues is that in some cases they may elicit immune responses that are qualitatively different from those that occur following stimulation with the parent compound. […] This selective activation of IL-4 production by NK T cells was proposed to be the basis for the enhanced therapeutic effects of OCH in the EAE model of central nervous system autoimmune disease. We have observed a similar in vivo effect on the nature of the NK T cell response using several of our ceramide-like glycolipids. […] These responses are similar to those seen for DB01-1, an analogue that is structurally almost identical to KRN7000 (C24 fatty acid instead of C26, otherwise identical) and indistinguishable in terms of its activity in our hands. […] This selective IL-4 induction is virtually identical to that reported for the OCH analogue, and thus illustrates the potential for amino substituted analogues of KRN7000 to induce qualitatively different immunomodulatory effects in vivo. The results reported in FIG. 9 were obtained by measuring serum levels of IL-4 and IFNγ after administering a single injection of […], DB03-4, or DB03-5 to C57BL/6 mice. C57BL/6 mice (11-13 weeks old) were given a single i.p. injection of 4.8 nanomoles of the ceramide-like glycolipids or PBS/vehicle control. Serum cytokine levels were measured 2 and 20 hours later by capture ELISA. Bars show means of three mice, with standard deviation.
For experiments involving in vivo treatment of mice with the ceramide-like glycolipids, the ceramide-like glycolipids were administered by i.p. or i.v. injection in 0.2 ml PBS+0.025% Tween-20, or in vehicle alone. A typical dose is about 4-5 nmoles per animal per injection. Representative references for administering an α-galactosyl ceramide to mice by i.p., i.v. or p.o. routes are S. Sharif et al., Activation of natural killer T cells by alpha-galactosylceramide treatment prevents the onset and recurrence of autoimmune Type 1 diabetes, Nat. Med., Sep. 7, 2001, (9):1057-62 and K. Miyamoto et al., A synthetic glycolipid prevents autoimmune encephalomyelitis by inducing TH2 bias of natural killer T cells, Nature. Oct. 4, 2001, 413(6855):5314.

## CCCCC/C=C\C/C=C\CCCCCCCCCC(=O)N[C@@H](COC1OC(CO)C(O)C(O)C1O)[C@H](O)[C@H](O)CCCCCCCCCCCCCC (some centres unmarked) [DB03-4]
20 hours after single i.p. injection of 4.8 nanomoles
  serum IFNγ response: not seen
Two hours after single i.p. injection of 4.8 nanomoles
  serum IL-4 response: strong IL-4 response
